One assay has as its system corn (maize). In words: Seed treatment of corn in pots. In kind it is in vivo. The settings on record: seed coating 125 μl of 10^−6 M, 2 weeks after planting. The procedure:
(§1) Five grams of corn (maize) seeds were added to three separate 50 ml tubes. A water solution containing 0.5% ethanol was added to the control tube, 125 μl of 10^−6 M CO4 solution was added to the CO4 tube, and 125 μl of 10^−6 M CO8 solution was added to the CO8 tube. Each tube was then shaken to coat the seeds. Seeds were potted immediately following treatment into moistened SUNGRO® potting mix in 4×6×6 cm pots. Plants were watered by pouring water into the tray containing the pots up to about ¾ inch high. After sowing the seeds, the pots were randomly distributed (16 pots per treatment) throughout the tray and placed underneath continuous light at room temperature for 1 week. Liquid Fahräeus medium (plant fertilizer solution; see above) was applied every 2 days or when necessary. After a week, the pots were placed underneath 10 h light and 14 h dark cycle at room temperature for 1 week. After 1 week underneath 10 h light and 14 h dark cycle (2 weeks after planting), the plants were carefully removed from the pots, and as much soil as possible was shaken off. The remaining soil was removed by submerging the root system into a beaker of water. The number of primary roots (PR), lateral roots (LR), root system length (RSL) and dry weight (DW) was then measured for all plants.

The subject of another assay is Hard Red Spring Wheat. In words: Seed treatment of hard red spring wheat in pots. In kind it is in vivo. The conditions noted are these: seed coating 125 μl of 10^−6 M, 2 weeks after planting. The procedure:
as §1, with “hard red spring wheat” for “corn (maize)”

The test system of assay [1] is Hard Red Spring Wheat (HRSW). Nature of the assay: Seed treatment of hard red spring wheat in vitro (plates). It is filed as in vivo. The settings on record: seed coating 125 μl of 10^−6 M; for Number of Lateral Roots / Number of Primary Roots: 4-5 days after transfer. The procedure:
Hard red spring wheat seeds were surface sterilized using ethanol and bleach. The sterilized seeds were then divided among 4 treatment groups of 5 grams each into 50 ml falcon tubes. To the control tube, 0.5% ethanol in water was added. To the CO4 tube, 125 μl of 10^−6 M CO4 solution was added. To the CO8 tube, 125 μl of 10^−6 M CO8 solution was added. To the “Consensus” tube, 125 μl of 10^−6 M solution of chitosan (CONSENSUS® chitosan; Loveland Products, Inc., Loveland, Colo.) was added. Each tube was then shaken to coat the seeds. The coated seeds were then placed on sterile Petri dishes in a hood and were left to dry overnight in the hood.
The seeds were then germinated on damp germination paper in sterile Petri dishes for 4 days. The resulting seedlings were transferred to Fahräeus medium plates containing damp germination paper, and the plates were wrapped in Parafilm®. Fahräeus medium contains 0.5 m M MgSO4, 0.7 mM KH2PO4, 0.4 mM Na2HPO4, 0.02 mM Fe-EDTA, 0.01 mM MnSO4, 0.007 mM CuSO4, 0.006 mM ZnSO4, 0.016 mM H3BO3, 0.001 mM Na2MoO4, and 15 g/L Agar for plant tissue, adjusted to pH 6.5 before autoclaving. The plants were grown at room temperature under continuous light for 4-5 days. The number of primary roots (PR), lateral roots (LR), root system length (RSL) and dry weight (DW) was then measured for all plants.

For a further assay, the system named is rice. In words: Root architecture modification in wild-type rice after submersion treatment. It is filed as in vivo, Oryza sativa cv Nipponbare. The conditions noted are these: 10^−8M, 24 hours submersion, assessed after two weeks, FIG. 3. The method, then: (§2) Oryza sativa cv Nipponbare wild-type and Tos17 insertion lines in POLLUX (line NC6453) and DMI3 were used for root architecture experiments (12, 13). Seeds were prepared by sterilizing with 2% bleach for 20 minutes, followed by 3, 5-minute rinses with sterile water. The sterile seeds were then imbibed overnight. Seeds were then plated on damp germination paper in Petri plates under sterile conditions and germinated in the dark at 25 degrees for 7 days. Germinated rice plants were then plated on Fahraeus medium on germination paper and grown at 22 degrees under constant light. After 5 days the plants were treated with 10^−8M LCOs and COs for 24 hours by submersion and re-plated onto Fåhræus Medium 1.5% agar plates (0.132 g/L CaCl2, 0.12 g/L MgSO4.7H2O, 0.1 g/L KH2PO4, 0.075 g/L Na2HPO4.2H2O, 5 mg/L Fe-citrate, and 0.07 mg/L each of MnCl2.4H2O, CuSO4.5H2O, ZnCl2, H3BO3, and Na2MoO4.2H2O, adjusted to pH 6.5 before autoclaving). As all signals were suspended in 50% ethanol, the appropriate concentration of ethanol in sterile DI water served as a control. Root system architecture was assessed after 2 weeks.
(§3) Total lateral roots of rice were enumerated manually two weeks after application of 10^−8M COs and LCOs. As COs and LCOs were suspended in 50% ethanol, the control is sterile deionized water containing the appropriate amount of ethanol. Lateral roots were defined as large and fine lateral roots emerging from crown roots, as well as fine lateral roots emerging from large lateral roots. Root system length was measured starting from the root-shoot junction to the tip of the longest root. The number of crown roots was assessed manually as those roots emerging from the root-shoot junction. Root type characterizations were based upon the descriptions in Gutjahr et al. (19). Data were assessed for normality using the Shapiro-Wilk test (α=0.01), and statistical significance was determined using a paired t-test assuming unequal variances, or a Mann-Whitney-Wilcoxon Test if normality was not observed (α=0.05). All statistical analysis was conducted using the R software package (20).

In assay [2] the test system is rice knock-out mutants of pollux and dmi3. Nature of the assay: Root architecture modification in rice Ospollux and Osdmi3 mutants. It is filed as in vivo, Oryza sativa cv Nipponbare. The conditions noted are these: 10^−8M; Ospollux and Osdmi3 mutants vs wild-type; FIG. 4. The method, then:
as §2
as §3, with “Lateral roots were defined as large and fine lateral roots emerging from crown roots, as well as fine lateral roots emerging from large lateral roots.” left out, “Root type characterizations were based upon the descriptions in Gutjahr et al. (19).” left out, “All statistical analysis was conducted using the R software package (20).” left out
To assess the role of the common symbiotic pathway in regulating root architecture modifications in response to purified LCOs and COs, we quantified root responses to mycorrhizal signals in rice knock-out mutants of pollux (upstream of calcium spiking) and dmi3 (downstream of calcium spiking).

Molecules are shown by their SMILES.

As to `CC(=O)N[C@H]1[C@H](O[C@H]2[C@H](O)[C@@H](NC(C)=O)C(O)O[C@@H]2CO)O[C@H](CO)[C@@H](O[C@@H]2O[C@H](CO)[C@@H](O[C@@H]3O[C@H](CO)[C@@H](O)[C@H](O)[C@H]3NC(C)=O)[C@H](O)[C@H]2NC(C)=O)[C@@H]1O` (stereo partly shown) [CO4, tetra-N-acetylchitotetraose], in the assay with corn (maize), the “Average Dry Weight” value was found to be 0.1225, the “Average Root System Length” value is given as 23.76 and the “Average Seminal Roots” value is 4.45. Also, in the assay on Hard Red Spring Wheat, the “Number of Lateral Roots” value came out at 16.25, the “Number of Primary Roots” value was 3.15 and the “Root System Length (cm)” value is recorded as 11.75 cm. In assay [1], the “Dry Weight” value came to 0.0206 g, the “Number of Lateral Roots” value is reported as 3.73 and the “Number of Primary Roots” value turned out to be 5.20. Besides, in the assay on rice, the crown root growth entry is “promoted” and the lateral root growth entry is recorded as “promoted”. Besides, the “dependence of lateral root growth promotion on POLLUX / DMI3” value in assay [2] is “dependent on both POLLUX and DMI3”.
For `CC(=O)N[C@H]1[C@H](O[C@H]2[C@H](O)[C@@H](NC(C)=O)[C@H](O[C@H]3[C@H](O)[C@@H](NC(C)=O)[C@H](O[C@H]4[C@H](O)[C@@H](NC(C)=O)C(O)O[C@@H]4CO)O[C@@H]3CO)O[C@@H]2CO)O[C@H](CO)[C@@H](O[C@@H]2O[C@H](CO)[C@@H](O[C@@H]3O[C@H](CO)[C@@H](O[C@@H]4O[C@H](CO)[C@@H](O[C@@H]5O[C@H](CO)[C@@H](O)[C@H](O)[C@H]5NC(C)=O)[C@H](O)[C@H]4NC(C)=O)[C@H](O)[C@H]3NC(C)=O)[C@H](O)[C@H]2NC(C)=O)[C@@H]1O` (stereo partly shown) [CO8, octa-N-acetyl-chitooctaose], in the assay on corn (maize), the “Average Dry Weight” value is 0.1229, the “Average Root System Length” value is 21.42 and the “Average Seminal Roots” value came to 4.75. Further, in the assay with Hard Red Spring Wheat, the “Number of Lateral Roots” value was found to be 14.30, the “Number of Primary Roots” value is 3.35 and the “Root System Length (cm)” value came out at 12.22 cm. In addition, in assay [1], the “Dry Weight” value worked out at 0.0191 g, the “Number of Lateral Roots” value is 3.00 and the “Number of Primary Roots” value was 5.20. In addition, the “Root System Length (cm)” value in assay [1] (* significant at P < 0.05) was determined as 11.51 cm. Further, in the assay on rice, the crown root growth result is listed as “promoted” and the lateral root growth entry is “promoted”. In assay [2], the “dependence of lateral root growth promotion on POLLUX / DMI3” value was “dependent on POLLUX”.

Source of the values: patent US10149472B2, “Chitin oligomers for use in promoting non-leguminous plant growth and development” (Wisconsin Alumni Research Foundation, priority 2015, dated 2018).
